The values below come from patent US20260132132A1, “3A,4,5,6-TETRAHYDRO-1 H-PYRAZOLO[3,4-C]PYRIDIN-7(7AH)-ONE DERIVATIVES AS FACTOR XIIA INHIBITORS” (KALVISTA PHARMACEUTICALS LIMITED, priority 2022, published 2026).

The structures appear in SMILES notation.

Broadly, the bioavailability is the share of a dose that reaches the circulation, judged against a reference dose that is usually intravenous. In general, half-life refers to how long it takes for the measured level to halve. Read a low half-life as rapid decline. Broadly, the IC50 is the concentration that gives 50% inhibition.

The nature of data set [1]: Pharmacokinetics following a single intravenous dose and a single oral dose in rats. It is filed as in vivo. Particulars: rat, male Sprague-Dawley rats, single iv dose (nominal 1 mg/kg) and single oral dose (nominal 5 mg/kg) in 10% DMSO/10% Cremophor EL/80% SWFI, plasma by LCMS, Phoenix WinNonlin; for bioavailability: read-out: F % (oral bioavailability); for half-life: route for T½ not stated. The procedure:
Pharmacokinetic studies of the compounds in Table 10 were performed to assess the pharmacokinetics following a single intravenous dose and a single oral dose in male Sprague-Dawley rats. Two rats were given a single intravenous dose of 1 ml/kg of a nominal 1 mg/ml (1 mg/kg) composition of test compound in 10% DMSO/10% Cremophor EL/80% SWFI vehicle. Two rats were given a single oral dose of 5 mL/kg of a nominal 1 mg/ml (5 mg/kg) composition of test compound in 10% DMSO/10% Cremophor EL/80% SWFI vehicle.
Following intravenous dosing, blood samples were collected over a period of 12 h. Sample times were 2, 5, 15 and 30 min then 1, 2, 4, 6, and 12 h. Following oral dosing, blood samples were collected over a period of 24 h. Sample times were 5, 15 and 30 min then 1, 2, 4, 6, 8, 12 and 24 h.
Following collection, blood samples were centrifuged and the plasma fraction analysed for concentration of test compound by LCMS. Oral bioavailability and half-life calculations from these studies were obtained using Phoenix WinNonlin (v8.0) and are shown below: […]

The next data set concerns the target FXa (Homo sapiens, UniProt P00742). Briefly: Related protease inhibition: FXa, fluorogenic substrate. It is filed as biochemical. Particulars: fluorogenic substrate at Km, 25° C., H1-H3 = % activity at 40 μM; for activity at 40 µM: read-out: IC50 (human FXa) nM. The procedure:
(§1) Human serine protease enzyme Plasma Kallikrein, KLK1, FXa, Plasmin, Thrombin and Trypsin were assayed for enzymatic activity using an appropriate fluorogenic substrate at Km concentration, FXIa at fixed substrate concentration of 100 μM and various concentrations of the test compound.

Data set [2] concerns the target T1, Human Factor XIIa (hFXIIa) (Homo sapiens, UniProt P00748).
T1 construct: purchased Enzyme Research Laboratories
T1 sequence (P00748 373-615 limits assumed): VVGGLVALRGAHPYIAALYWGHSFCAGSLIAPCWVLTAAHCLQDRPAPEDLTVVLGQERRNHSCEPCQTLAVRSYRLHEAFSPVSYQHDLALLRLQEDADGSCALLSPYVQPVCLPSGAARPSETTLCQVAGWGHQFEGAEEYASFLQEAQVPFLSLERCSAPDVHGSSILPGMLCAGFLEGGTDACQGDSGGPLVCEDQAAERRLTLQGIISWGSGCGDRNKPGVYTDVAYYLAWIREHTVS
T1 sequence (P00748 20-372 partner limits assumed): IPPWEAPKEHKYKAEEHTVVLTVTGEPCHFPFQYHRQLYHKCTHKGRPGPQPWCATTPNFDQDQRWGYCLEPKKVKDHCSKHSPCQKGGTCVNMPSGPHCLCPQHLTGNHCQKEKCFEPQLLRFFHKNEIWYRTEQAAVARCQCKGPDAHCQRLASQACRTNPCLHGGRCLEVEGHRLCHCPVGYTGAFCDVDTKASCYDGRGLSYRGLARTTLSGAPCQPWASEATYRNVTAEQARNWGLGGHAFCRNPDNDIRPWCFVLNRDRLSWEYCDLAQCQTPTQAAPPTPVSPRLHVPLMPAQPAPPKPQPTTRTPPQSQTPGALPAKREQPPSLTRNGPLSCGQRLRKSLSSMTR
Briefly: Determination of Human Factor XIIa (hFXIIa) inhibition, fluorogenic substrate IC50 assay. It is filed as biochemical. Particulars: fluorogenic substrate H-DPro-Phe-Arg-AFC at Km, 25° C., read-out: Human FXIIa IC50. As to the method: Determination of Human Factor XIIa (hFXIIa) inhibition
The Km for the cleavage of the substrate by hFXIIa was determined by standard transformation of the Michaelis-Menten equation, with subsequent inhibition assays performed at substrate Km concentration.

The next data set concerns the target Thrombin (Homo sapiens, UniProt P00734). Kind of data set: Related protease inhibition: Thrombin, fluorogenic substrate. Particulars: fluorogenic substrate at Km, 25° C., H1-H3 = % activity at 40 μM; for activity at 40 µM: read-out: IC50 (human thrombin) nM. It is filed as biochemical. The procedure: as §1

Sequence of FXa (P00742 235-488 limits assumed): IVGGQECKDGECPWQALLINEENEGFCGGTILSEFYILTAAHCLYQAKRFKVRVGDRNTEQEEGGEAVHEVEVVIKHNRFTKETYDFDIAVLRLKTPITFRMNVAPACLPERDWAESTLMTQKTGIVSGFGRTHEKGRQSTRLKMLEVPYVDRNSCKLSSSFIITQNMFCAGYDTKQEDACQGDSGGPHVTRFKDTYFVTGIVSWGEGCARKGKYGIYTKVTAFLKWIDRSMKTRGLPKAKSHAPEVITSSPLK
Sequence of FXa (P00742 41-179 partner limits assumed): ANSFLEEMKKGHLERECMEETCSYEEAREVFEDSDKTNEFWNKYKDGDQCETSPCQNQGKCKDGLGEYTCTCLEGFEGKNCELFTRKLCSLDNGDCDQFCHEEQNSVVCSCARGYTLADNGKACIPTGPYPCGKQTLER

On to `CN1CCc2ccc(N3CCc4c(C(=O)NCC5CC5)nn(-c5cccc(Cl)c5)c4C3=O)cc2C1=O` [Example 1149, 1-(3-chlorophenyl)-N-(cyclopropylmethyl)-6-(2-methyl-1-oxo-1,2,3,4-tetrahydroisoquinolin-7-yl)-7-oxo-4,5,6,7-tetrahydro-1H-pyrazolo[3,4-c]pyridine-3-carboxamide], for which, in data set [1], the bioavailability stood at 56%. In addition, the half-life in data set [1] was determined as 133 min. For the same compound, the concentration for half-maximal inhibition (IC50) at FXa was greater than 40 µM; in data set [2] it was 300 to 1000 nM.
On to `Cc1cc(C)c(CNC(=O)c2nn(-c3cccc(Cl)c3)c3c2CCN(c2ccc4c(c2)CN(CCO)CC4)C3=O)cn1` [Example 1128, 1-(3-Chlorophenyl)-N-((4,6-dimethylpyridin-3-yl)methyl)-6-(2-(2-hydroxyethyl)-1,2,3,4-tetrahydroisoquinolin-7-yl)-7-oxo-4,5,6,7-tetrahydro-1H-pyrazolo[3,4-c]pyridine-3-carboxamide], for which, in data set [1], the bioavailability was found to be 27% and the half-life stood at 273 min. The compound further gave an IC50 on FXa of 10 to 40 µM. Besides, the IC50 in data set [2] lay in the range of 10 to 100 nM.
`Cc1cc(CNC(=O)c2nn(-c3cccc(Cl)c3)c3c2CCN(c2cc4c(cn2)CCN(CCO)C4)C3=O)nn1C` [Example 1220, 1-(3-chlorophenyl)-N-((1,5-dimethyl-1H-pyrazol-3-yl)methyl)-6-(6-(2-hydroxyethyl)-5,6,7,8-tetrahydro-2,6-naphthyridin-3-yl)-7-oxo-4,5,6,7-tetrahydro-1H-pyrazolo[3,4-c]pyridine-3-carboxamide]: in data set [1], the bioavailability came to 22% and the half-life is 70 min. Further, on FXa, the IC50 lay in the range of 10 to 40 µM. In data set [2], the IC50 was 10 to 100 nM.
Take `CN1CCc2ccc(N3CCc4c(C(=O)N[C@@H]5CCOC5)nn(-c5cccc(Cl)c5F)c4C3=O)cc2C1=O` [Example 2039, (R)-1-(3-chloro-2-fluorophenyl)-6-(2-methyl-1-oxo-1,2,3,4-tetrahydroisoquinolin-7-yl)-7-oxo-N-(tetrahydrofuran-3-yl)-4,5,6,7-tetrahydro-1H-pyrazolo[3,4-c]pyridine-3-carboxamide]: in data set [1], the bioavailability was determined as 27%. This compound gave a half-life in data set [1] of 45 min. In addition, the half-inhibitory concentration (IC50) at FXa was greater than 40 µM; in data set [2], 100 to 300 nM.
Take `Cc1cc(CNC(=O)c2nn(-c3cccc(Cl)c3)c3c2CCN(c2ccc4c(c2)C(=O)N(CCO)CC4)C3=O)nn1C` [Example 1222, 1-(3-chlorophenyl)-N-((1,5-dimethyl-1H-pyrazol-3-yl)methyl)-6-(2-(2-hydroxyethyl)-1-oxo-1,2,3,4-tetrahydroisoquinolin-7-yl)-7-oxo-4,5,6,7-tetrahydro-1H-pyrazolo[3,4-c]pyridine-3-carboxamide]: in data set [1], the bioavailability was determined as 5% and the half-life amounted to 35 min. For the same compound, in data set [2], the IC50 is 10 to 100 nM.
In the case of `O=C(NCC1CC1)c1nn(-c2cccc(Cl)c2)c2c1CCN(c1ccc3c(c1)CN(CCO)CC3)C2=O` [Example 1055, 1-(3-Chlorophenyl)-N-(cyclopropylmethyl)-6-(2-(2-hydroxyethyl)-1,2,3,4-tetrahydroisoquinolin-7-yl)-7], in data set [1], the bioavailability was found to be 55% and the half-life was determined as 277 min. This compound had an IC50 against FXa greater than 40 µM. For the same compound, in data set [2], the IC50 is 10 to 100 nM.
As to `COCCN1CCc2ccc(N3CCc4c(C(=O)NCC5CC5)nn(-c5cccc(Cl)c5)c4C3=O)cc2C1` [Example 1037, 1-(3-chlorophenyl)-N-(cyclopropylmethyl)-6-(2-(2-methoxyethyl)-1,2,3,4-tetrahydroisoquinolin-7-yl)-7-oxo-4,5,6,7-tetrahydro-1H-pyrazolo[3,4-c]pyridine-3-carboxamide], the IC50 is greater than 100 µM against Thrombin, greater than 100 µM at FXa and 10 to 100 nM in data set [2].
`CN1CCc2ccc(N3CCc4c(C(=O)N[C@H](CO)C5CC5)nn(-c5cccc(Cl)c5)c4C3=O)cc2C1=O` [Example 1406, (S)-1-(3-chlorophenyl)-N-(1-cyclopropyl-2-hydroxyethyl)-6-(2-methyl-1-oxo-1,2,3,4-tetrahydroisoquinolin-7-yl)-7-oxo-4,5,6,7-tetrahydro-1H-pyrazolo[3,4-c]pyridine-3-carboxamide]: the activity at 40 µM on Thrombin is 20 to 80%; at FXa, greater than 80%. Besides, the IC50 in data set [2] lay within 100 to 300 nM.
On the same counts, the results for `COCc1nn(-c2cc(Cl)cc(CN)c2)c2c1CCN(c1ccc3c(c1)C(=O)N(C)CC3)C2=O` [Example 2041, 7-(1-(3-(aminomethyl)-5-chlorophenyl)-3-(methoxymethyl)-7-oxo-1,4,5,7-tetrahydro-6H-pyrazolo[3,4-c]pyridin-6-yl)-2-methyl-3,4-dihydroisoquinolin-1(2H)-one] are 20 to 80%, 20 to 80% and 10 to 100 nM.
Consider `CN1CCOc2ccc(N3CCc4c(C(=O)NCC5CC5)nn(-c5cccc(Cl)c5F)c4C3=O)cc2C1=O` [Example 2046, 1-(3-chloro-2-fluorophenyl)-N-(cyclopropylmethyl)-6-(4-methyl-5-oxo-2,3,4,5-tetrahydrobenzo[f][1,4]oxazepin-7-yl)-7-oxo-4,5,6,7-tetrahydro-1H-pyrazolo[3,4-c]pyridine-3-carboxamide], for which the activity at 40 µM at Thrombin and on FXa was greater than 80% in each case. The IC50 in data set [2] is 10 to 100 nM.
With `CN1CCc2ccc(N3CCc4c(C(=O)NC5CCCC5)nn(-c5cccc(Cl)c5)c4C3=O)cc2C1` [Example 1044, 1-(3-chlorophenyl)-N-cyclopentyl-6-(2-methyl-1,2,3,4-tetrahydroisoquinolin-7-yl)-7-oxo-4,5,6,7-tetrahydro-1H-pyrazolo[3,4-c]pyridine-3-carboxamide], the figures for the concentration for half-maximal inhibition (IC50) (against Thrombin; against FXa; in data set [2]) were greater than 100 µM, 3 to 10 µM and 100 to 300 nM, respectively.
On to `CC(C)N1CCc2ccc(N3CCc4c(C(=O)NCC5CC5)nn(-c5cccc(Cl)c5)c4C3=O)cc2C1` [Example 1035, 1-(3-chlorophenyl)-N-(cyclopropylmethyl)-6-(2-isopropyl-1,2,3,4-tetrahydroisoquinolin-7-yl)-7-oxo-4,5,6,7-tetrahydro-1H-pyrazolo[3,4-c]pyridine-3-carboxamide], for which the IC50 against Thrombin was greater than 100 µM; at FXa, 10 to 40 µM; in data set [2] it was 100 to 300 nM.
On to `CCNC(=O)c1nn(-c2cc(C)cc(Cl)c2)c2c1CCN(c1ccc3c(c1)C(=O)N(C)CC3)C2=O` [Example 2051, 1-(3-chloro-5-methylphenyl)-N-ethyl-6-(2-methyl-1-oxo-1,2,3,4-tetrahydroisoquinolin-7-yl)-7-oxo-4,5,6,7-tetrahydro-1H-pyrazolo[3,4-c]pyridine-3-carboxamide], for which the activity at 40 µM was greater than 80% at Thrombin and 20 to 80% on FXa. In data set [2], the IC50 lay in the range of 300 to 1000 nM.
With `Cc1ccc(CNC(=O)c2nn(-c3cccc(Cl)c3F)c3c2CCN(c2ccc4c(c2)C(=O)N(C)CC4)C3=O)cn1` [Example 2044, 1-(3-chloro-2-fluorophenyl)-6-(2-methyl-1-oxo-1,2,3,4-tetrahydroisoquinolin-7-yl)-N-((6-methylpyridin-3-yl)methyl)-7-oxo-4,5,6,7-tetrahydro-1H-pyrazolo[3,4-c]pyridine-3-carboxamide], the activity at 40 µM on Thrombin was 20 to 80%; on FXa it was greater than 80%. In addition, in data set [2], the IC50 lay in the range of 10 to 100 nM.
